The values below come from patent US11446287B2, “Compounds and methods for EP300 or CBP modulation and indications therefor” (Opna Immuno-Oncology SA, priority 2019, dated 2022).

Molecules are shown by their SMILES.

This test deals with T1, Recombinant human BRD4 containing dual bromodomains (BRD4-BD12 (1-477)) (Homo sapiens, UniProt O60885).
T1 construct: Recombinant human BRD4 containing dual bromodomains (BRD4-BD12 (1-477)); made in house; host or cells: E. coli BL21-CodonPlus (DE3), modified pET vector
Put plainly: BRD4 Alphascreen binding assay. Put shortly: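 AlphaScreen proximity between Ni-chelate-bound BRD4-BD12 (1-477) and streptavidin-captured H4 K5/K8/K12/K16-acetyl peptide measured after 1 h room-temperature compound incubation and 30 min with 7.5 μg/ml beads. Buffer: 50 mM HEPES pH 7.5, 50 mM NaCl, 0.01% BSA, 0.01% Triton X-100; data plate-normalized and four-parameter fit for IC50.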
One may read the IC50 as the concentration needed to halve the response being measured. Turning to `CCOc1cc(C(=O)O)cc(OCC)c1-n1cc(-c2cccc(Cl)c2)c2ncc(-c3c(C)noc3C)cc21` [P-0185, 4-(3-(3-chlorophenyl)-6-(3,5-dimethylisoxazol-4-yl)-1H-pyrrolo[3,2-b]pyridin-1-yl)-3,5-diethoxybenzoic acid], the IC50 was in the range of 1 to 8 µM.
The value for `CCOc1cc(C(=O)O)cc(OCC)c1-n1cc(-c2ccc(F)cc2F)c2ncc(-c3c(C)noc3C)cc21` [P-0186, 4-(3-(2,4-difluorophenyl)-6-(3,5-dimethylisoxazol-4-yl)-1H-pyrrolo[3,2-b]pyridin-1-yl)-3,5-diethoxybenzoic acid] was 8 to 1000 µM.
Under `CCOc1cc(C(=O)O)cc(OCC)c1-n1cc(Cc2ccccn2)c2ncc(-c3c(C)noc3C)cc21` [P-0187, 4-(6-(3,5-dimethylisoxazol-4-yl)-3-(pyridin-2-ylmethyl)-1H-pyrrolo[3,2-b]pyridin-1-yl)-3,5-diethoxybenzoic acid] stands 8 to 1000 µM; under `Cc1noc(C)c1-c1cnc2c(c1)c(-c1ccc(C(=O)O)cc1OC(F)(F)F)cn2-c1ccccc1` [P-0188, 4-(5-(3,5-dimethylisoxazol-4-yl)-1-phenyl-1H-pyrrolo[2,3-b]pyridin-3-yl)-3-(trifluoromethoxy)benzoic acid], 1 to 8 µM; under `Cc1ccncc1-n1cc(-c2ccc(C(=O)O)cc2OC(F)(F)F)c2cc(-c3c(C)noc3C)cnc21` [P-0189, 4-(5-(3,5-dimethylisoxazol-4-yl)-1-(4-methylpyridin-3-yl)-1H-pyrrolo[2,3-b]pyridin-3-yl)-3-(trifluoromethoxy)benzoic acid], 8 to 1000 µM.
`CCOc1cc(C(=O)O)cc(OCC)c1-n1cc(CC2CCC2)c2ncc(-c3c(C)nnn3C)cc21` [P-0190, 4-(3-(cyclobutylmethyl)-6-(1,4-dimethyl-1H-1,2,3-triazol-5-yl)-1H-pyrrolo[3,2-b]pyridin-1-yl)-3,5-diethoxybenzoic acid]: the concentration for half-maximal inhibition (IC50) lay in the range of 1 to 8 µM.
Consider `Cc1noc(C)c1-c1cnc2c(c1)c(-c1ccc(C(=O)O)cc1OC(F)(F)F)cn2CCN1CCOCC1` [P-0191, 4-(5-(3,5-dimethylisoxazol-4-yl)-1-(2-morpholinoethyl)-1H-pyrrolo[2,3-b]pyridin-3-yl)-3-(trifluoromethoxy)benzoic acid], for which the IC50 lay in the range of 8 to 1000 µM.
Turning to `CCOc1cc(C(=O)O)cc(OCC)c1-n1cc(-c2ccc(C3CC3)nc2)c2ncc(-c3c(C)noc3C)cc21` [P-0192, 4-(3-(6-cyclopropylpyridin-3-yl)-6-(3,5-dimethylisoxazol-4-yl)-1H-pyrrolo[3,2-b]pyridin-1-yl)-3,5-diethoxybenzoic acid], the IC50 is 1 to 8 µM.
Under `CCOc1cc(C(=O)O)cc(OCC)c1-n1cc(-c2cncc(Cl)c2)c2ncc(-c3c(C)noc3C)cc21` [P-0193, 4-(3-(5-chloropyridin-3-yl)-6-(3,5-dimethylisoxazol-4-yl)-1H-pyrrolo[3,2-b]pyridin-1-yl)-3,5-diethoxybenzoic acid] stands 1 to 8 µM; under `CCOc1cc(C(=O)O)cc(OCC)c1-n1cc(-c2ccc(OC)cc2F)c2ncc(-c3c(C)noc3C)cc21` [P-0194, 4-(6-(3,5-dimethylisoxazol-4-yl)-3-(2-fluoro-4-methoxyphenyl)-1H-pyrrolo[3,2-b]pyridin-1-yl)-3,5-diethoxybenzoic acid], 1 to 8 µM; under `CCOc1cc(C(=O)O)cc(OCC)c1-n1cc(-c2cnn(C)c2)c2ncc(-c3c(C)noc3C)cc21` [P-0195, 4-(6-(3,5-dimethylisoxazol-4-yl)-3-(1-methyl-1H-pyrazol-4-yl)-1H-pyrrolo[3,2-b]pyridin-1-yl)-3,5-diethoxybenzoic acid], 1 to 8 µM.
The value for `Cc1noc(C)c1-c1cnc2c(-c3ccccc3)cn(-c3ccc(C(=O)O)cc3OC(F)(F)F)c2c1` [P-0196, 4-(6-(3,5-dimethylisoxazol-4-yl)-3-phenyl-1H-pyrrolo[3,2-b]pyridin-1-yl)-3-(trifluoromethoxy)benzoic acid] was 1 to 8 µM; that for `Cc1noc(C)c1-c1cnc2c(c1)c(-c1c(Cl)cc(C(=O)O)cc1Cl)cn2[C@@H](C)c1ccccn1` [P-0197, (S)-3,5-dichloro-4-(5-(3,5-dimethylisoxazol-4-yl)-1-(1-(pyridin-2-yl)ethyl)-1H-pyrrolo[2,3-b]pyridin-3-yl)benzoic acid] was 8 to 1000 µM.
Consider `Cc1noc(C)c1-c1cnc2c(c1)c(-c1c(Cl)cc(C(=O)O)cc1OC(F)(F)F)cn2C(C1CC1)C1CC1` [P-0198, 3-chloro-4-(1-(dicyclopropylmethyl)-5-(3,5-dimethylisoxazol-4-yl)-1H-pyrrolo[2,3-b]pyridin-3-yl)-5-(trifluoromethoxy)benzoic acid], for which the IC50 was in the range of 8 to 1000 µM.
Under `Cc1noc(C)c1-c1cnc2c(c1)c(-c1ccc(C(=O)O)cc1OC(F)(F)F)cn2C(CC#N)C1CC1` (stereo not drawn) [P-0199, 4-(1-(2-cyano-1-cyclopropylethyl)-5-(3,5-dimethylisoxazol-4-yl)-1H-pyrrolo[2,3-b]pyridin-3-yl)-3-(trifluoromethoxy)benzoic acid] stands 8 to 1000 µM; under `Cc1noc(C)c1-c1cnc2c(c1)c(-c1ccc(C(=O)O)cc1OC(F)(F)F)cn2C(CC#N)C1CCCC1` (stereo not drawn) [P-0200, 4-(1-(2-cyano-1-cyclopentylethyl)-5-(3,5-dimethylisoxazol-4-yl)-1H-pyrrolo[2,3-b]pyridin-3-yl)-3-(trifluoromethoxy)benzoic acid], 8 to 1000 µM; under `CCOc1cc(C(=O)O)cc(OCC)c1-n1cc(-c2cnc(OC)nc2)c2ncc(-c3c(C)noc3C)cc21` [P-0201, 4-(6-(3,5-dimethylisoxazol-4-yl)-3-(2-methoxypyrimidin-5-yl)-1H-pyrrolo[3,2-b]pyridin-1-yl)-3,5-diethoxybenzoic acid], 1 to 8 µM.
Turning to `Cc1noc(C)c1-c1cnc2c(c1)c(-c1ccc(C(=O)O)cc1OC(F)(F)F)cn2S(=O)(=O)C1CC1` [P-0202, 4-(1-(cyclopropylsulfonyl)-5-(3,5-dimethylisoxazol-4-yl)-1H-pyrrolo[2,3-b]pyridin-3-yl)-3-(trifluoromethoxy)benzoic acid], the IC50 was in the range of 1 to 8 µM.
Take `Cc1noc(C)c1-c1cnc2c(c1)c(-c1ccc(C(=O)O)cc1OC(F)(F)F)cn2-c1ccnc(C(C)C)c1` [P-0203, 4-(5-(3,5-dimethylisoxazol-4-yl)-1-(2-isopropylpyridin-4-yl)-1H-pyrrolo[2,3-b]pyridin-3-yl)-3-(trifluoromethoxy)benzoic acid]: the IC50 lay within 1 to 8 µM.
For the compound `Cc1noc(C)c1-c1cnc2c(c1)c(-c1ccc(C(=O)O)cc1OC(F)(F)F)cn2-c1cnccc1C#N` [P-0204, 4-(1-(4-cyanopyridin-3-yl)-5-(3,5-dimethylisoxazol-4-yl)-1H-pyrrolo[2,3-b]pyridin-3-yl)-3-(trifluoromethoxy)benzoic acid], the IC50 lay within 8 to 1000 µM.
As for `CCOc1cc(C(=O)O)cc(F)c1-n1cc(-c2ccccc2)c2ncc(-c3c(C)noc3C)cc21` [P-0205, 4-(6-(3,5-dimethylisoxazol-4-yl)-3-phenyl-1H-pyrrolo[3,2-b]pyridin-1-yl)-3-ethoxy-5-fluorobenzoic acid], the IC50 lay in the range of 1 to 8 µM.
The value for `CCOc1cccc(C#N)c1-n1cc(-c2ccccc2)c2ncc(-c3c(C)noc3C)cc21` [P-0206, 2-(6-(3,5-dimethylisoxazol-4-yl)-3-phenyl-1H-pyrrolo[3,2-b]pyridin-1-yl)-3-ethoxybenzonitrile] was 8 to 1000 µM.
Regarding `Cc1noc(C)c1-c1cnc2c(-c3ccccc3)cn(-c3c(Cl)cccc3C#N)c2c1` [P-0207, 3-chloro-2-(6-(3,5-dimethylisoxazol-4-yl)-3-phenyl-1H-pyrrolo[3,2-b]pyridin-1-yl)benzonitrile], the IC50 lay within 1 to 8 µM.
Under `CCOc1cc(C(=O)O)cc(OCC)c1-n1cc(C2=CCC(F)(F)CC2)c2ncc(-c3c(C)noc3C)cc21` [P-0208, 4-(3-(4,4-difluorocyclohex-1-en-1-yl)-6-(3,5-dimethylisoxazol-4-yl)-1H-pyrrolo[3,2-b]pyridin-1-yl)-3,5-diethoxybenzoic acid] stands 1 to 8 µM.
The value for `CCOc1cc(C(=O)O)cc(OCC)c1-n1cc(-c2ccc(F)c(Cl)c2)c2ncc(-c3c(C)noc3C)cc21` [P-0209, 4-(3-(3-chloro-4-fluorophenyl)-6-(3,5-dimethylisoxazol-4-yl)-1H-pyrrolo[3,2-b]pyridin-1-yl)-3,5-diethoxybenzoic acid] was 1 to 8 µM.
Under `CCOc1cc(C(=O)O)cc(OCC)c1-n1cc(CC2CCC2)c2ncc(-c3c(COC)noc3C)cc21` [P-0210, 4-(3-(cyclobutylmethyl)-6-(3-(methoxymethyl)-5-methylisoxazol-4-yl)-1H-pyrrolo[3,2-b]pyridin-1-yl)-3,5-diethoxybenzoic acid] stands 8 to 1000 µM.
As to `Cc1cnccc1-n1cc(-c2ccc(C(=O)O)cc2OC(F)(F)F)c2cc(-c3c(C)noc3C)cnc21` [P-0211, 4-(5-(3,5-dimethylisoxazol-4-yl)-1-(3-methylpyridin-4-yl)-1H-pyrrolo[2,3-b]pyridin-3-yl)-3-(trifluoromethoxy)benzoic acid], the IC50 was in the range of 1 to 8 µM.
Take `Cc1noc(C)c1-c1cnc2c(c1)c(-c1ccc(C(=O)O)cc1OC(F)(F)F)cn2C1CCS(=O)(=O)CC1` [P-0212, 4-(5-(3,5-dimethylisoxazol-4-yl)-1-(1,1-dioxidotetrahydro-2H-thiopyran-4-yl)-1H-pyrrolo[2,3-b]pyridin-3-yl)-3-(trifluoromethoxy)benzoic acid]: the IC50 is 8 to 1000 µM.
The value for `Cc1noc(C)c1-c1cnc2c(c1)c(-c1ccc(C(=O)O)cc1OC(C)C)cn2C(C1CC1)C1CC1` [P-0213, 4-(1-(dicyclopropylmethyl)-5-(3,5-dimethylisoxazol-4-yl)-1H-pyrrolo[2,3-b]pyridin-3-yl)-3-isopropoxybenzoic acid] was 8 to 1000 µM.
With `Cc1noc(C)c1-c1cnc2c(c1)c(-c1ccc(C(=O)O)cc1OCC(F)(F)F)cn2C(C1CC1)C1CC1` [P-0214, 4-(1-(dicyclopropylmethyl)-5-(3,5-dimethylisoxazol-4-yl)-1H-pyrrolo[2,3-b]pyridin-3-yl)-3-(2,2,2-trifluoroethoxy)benzoic acid], the IC50 fell in the range of 8 to 1000 µM.
